Patent US20260007601A1, “IONIZABLE CATIONIC LIPID COMPOUND AND COMPOSITION FOR DELIVERING NUCLEIC ACID AND USE THEREOF” (BEIJING YOUCAREKECHUANG PHARMACEUTICAL TECHNOLOGY CO., LTD., priority 2023, published 2026)

How the values were obtained:
293T cells [1] = test: Cell survival rate assay (CCK-8); assay type: cell-based; conditions: LNP containing 1.5 μg Fluc-mRNA, 24 hours, CCK-8
Experimental: (§1) Cell recovery and passaging: 293T cells were recovered and cultured in culture dishes to the required cell number.
(§2) Plating: The cells in the culture dish were digested, counted, plated in a 96-well plate at 10,000 cells per well, or in a 12-well plate at 150,000 cells per well, and cultured overnight until the cells adhered to the wall.
(§3) Cell recovery and passage: The method was the same as in Example 3.
(§4) Plating: The method was the same as Example 3.
The LNP formulations containing 1.5 μg Fluc-mRNA (prepared according to Example 4, the LNP formulation carrier components are cationic lipids, neutral lipids, structured lipids and polymer-conjugated lipids at a molar ratio of 49:10:39.5:1.5, wherein the cationic lipids are the cationic lipids listed in Table 1) and the Lipofectamine 3000 formulation were added to the cell culture medium of the 96-well plate, and the culture was continued for 24 hours. Then, 10 μL of CCK-8 solution was added to each well, and the culture plate was incubated in the incubator for 1 hour, and the absorbance at 450 nm was measured by a microplate reader.

female BALB/C mice = test: Mouse in vivo imaging of Fluc-mRNA LNP formulations; parameters: average radiation intensity (mRNA expression): unit not given here; conditions: 10 μg Fluc-mRNA LNP intramuscularly
Experimental: The LNP formulation containing 10 μg Fluc-mRNA (prepared according to Example 4) was injected intramuscularly into female BALB/C mice aged 4 to 6 weeks and weighing 17 to 19 g, and the mice were intraperitoneally injected with fluorescent imaging substrates at specific time points (6 h, 24 h, 48 h and 7 d) after administration. The mice moved freely for 5 minutes, and then the average radiation intensity (corresponding to the fluorescence expression intensity) of the protein expressed by the mRNA carried by the LNP in the mice was detected by IVIS Spectrum small animal in vivo imager. The test results are shown in Tables 14 to 17 and FIGS. 12 to 14.

[2] = Encapsulation rate, drug loading concentration and total RNA concentration detection (RiboGreen); assay type: physicochemical; conditions: LNP formulation of the named lipid
Source text: Encapsulation rate is a key quality attribute of liposomes. It refers to the percentage of drug content encapsulated in the lipid bilayer to the total amount of drug added, which can reflect the degree of drug encapsulation in liposomes. The Chinese Pharmacopoeia stipulates that the encapsulation rate should usually not be less than 80%.
The drug loading capacity is the ratio of the amount of drug in the liposome to the total amount of drug and carrier in the liposome. The drug loading capacity directly affects the clinical application dose of the drug, so the larger the drug loading capacity, the more it can meet clinical needs. The drug loading concentration is proportional to the drug loading capacity, and the relative proportion of the drug loading concentration can represent the relative proportion of the drug loading capacity. The relative proportion of the total RNA concentration can represent the relative proportion of the amount of mRNA carried by the LNP formulation.
1×TE buffer, 0.1% Triton X-100 buffer, and RiboGreen reagent (1:200) and mRNA standard stock solution were prepared.
An appropriate amount of sample was taken and added to an appropriate amount of 1×TE buffer, which was diluted to a solution containing about 2.8 μg of the test sample per 1 mL. Then the sample was added to a 96-well plate, where 50 μL of the diluted test sample or mRNA standard stock solution was added to each well, and then added with 1×TE buffer and 0.1% Triton X-100 buffer. The samples were incubated at 37° C. for 10 minutes, and 100 μL of RiboGreen reagent (1:200) was added to each well of the 96-well plate. The plate was centrifuged, and read using an ELISA reader, and the data was processed.

293T cells [3] = test: Fluorescence detection of Fluc-mRNA (cell transfection efficiency of LNP formulations); assay type: cell-based; conditions: for Relative light unit (RLU): LNP containing 0.3 μg Fluc-mRNA, 24 hours; for Multiples of values that equivalent to YK-201: RLU of YK-201 / RLU of the named lipid; for Multiples of values that equivalent to YK-202: RLU of YK-202 / RLU of the named lipid; for Ratio relative to SM-102: RLU of the named lipid / RLU of SM-102, times that of SM-102
Experimental: as §1, §2, §3, §4
The LNP formulation containing 0.3 μg Fluc-mRNA (prepared according to Example 4, the LNP formulation carrier components were cationic lipids, neutral lipids, structured lipids and polymer-conjugated lipids at a molar ratio of 49:10:39.5:1.5, and the cationic lipids were cationic lipids listed in Table 1) was added to the cell culture medium of a 96-well plate, and cultured for 24 hours. After that, the corresponding reagents were added according to the instructions of the Gaussia Luciferase Assay Kit, and the fluorescence expression intensity of each well was detected by the IVIS fluorescence detection system. This experiment verified the transfection efficiency of the LNP formulation in the cell, and the specific detection results are shown in Tables 6-9.

[4] = Particle size and polydispersity index (PDI) of nanolipid particles, dynamic light scattering; assay type: physicochemical; conditions: LNP formulation prepared from the named cationic lipid, 25° C
Experimental: The particle size and polydispersity index (PDI) were determined by dynamic light scattering method using a Malvern laser particle size analyzer. 10 μL of liposome solution was diluted to 1 mL with RNase-free deionized water and added to a sample pool. Each sample was measured three times. The measurement conditions were: 90° scattering angle, 25° C.

| Compound | Cell survival rate (293T cells [1]) [%] | average radiation intensity (mRNA expression) (female BALB/C mice; 6 h) | average radiation intensity (mRNA expression) (female BALB/C mice; 24 h) | average radiation intensity (mRNA expression) (female BALB/C mice; 48 h) | average radiation intensity (mRNA expression) (female BALB/C mice; 7 d) | Drug loading concentration [2] [µg/mL] | Encapsulation rate [2] [%] | Total RNA concentration [2] [µg/mL] | Relative light unit (RLU) (293T cells [3]) | Multiples of values that equivalent to YK-201 (293T cells [3]) | Multiples of values that equivalent to YK-202 (293T cells [3]) | Multiples of values that equivalent to YK-209 (293T cells [3]; RLU of YK-209 / RLU of the named lipid) | Ratio relative to SM-102 (293T cells [3]) | PDI [4] [%] | Particle size [4] [nm] |
| --- | --- | --- | --- | --- | --- | --- | --- | --- | --- | --- | --- | --- | --- | --- | --- |
| CCCCCCCCC(CCCCCC)C(=O)OCCCCCCN(CCCCO)CCCCCCOC(=O)C(CCCCCC)CCCCCCCC (stereo not drawn) [ALC-0315, reference compound] | 49.96 | 842355 | 182350 | 38130 | 6588 | 26.05 | 62.8 | 37.12 | 2147045 | 13.27 | 13.95 | 12.51 | 1.29 | 15.9 | 218 |
| CCCCCCC(CCCCCC)CCOC(=O)CCCCCCCN(CCO)CCCCCCCC(=O)OCCC(CCCCCC)CCCCCC [Compound 23, bis(3-hexylnonyl)8,8′-((2-hydroxyethyl)azadialkyl)dioctanoate, reference compound] | 70.10 | 594050 | 110870 | 32074 | 5827 | 20.7 | 55.2 | 32.51 | 1332014 | 21.38 | 22.49 | – | 0.80 | 8.6 | 138 |
| CCCCCCCCCCCCC(O)CN(C)CCCCCC(=O)OCC(CCCCCC)CCCCCCCC (stereo not drawn) [HHMA, reference compound] | 65.56 | 638870 | 109650 | 29445 | 5312 | 30.6 | 60.5 | 37.84 | 2099714 | 13.56 | 14.27 | – | 1.26 | 15.1 | 135 |
| CCCCCCCCCCCOC(=O)CCCCCN(CCO)CCCCCCCC(=O)OC(CCCCCCCC)CCCCCCCC [SM-102, reference compound] | 68.55 | 678870 | 115800 | 30560 | 5903 | 25.44 | 62.3 | 35.27 | 1665874 | 17.10 | 17.98 | – | 1.00 | 19.2 | 145 |
